Experimental data from PubChem BioAssay AID1963829 (Molecular Pharmacology Branch, DTP, NCI, 2024).
Several values for one entry are separate records, joined by “and”; a condition that tells them apart may be missing. Equal values may be shown once.

Tested on: 935938-334-R-J1-PDC complex spheroid viability
Experiment: Anticancer human tumor 935938-334-R-J1-PDC patient-derived small intestine adenocarcinoma cell line growth inhibition [POLQ]
Conditions: for viability, T/C: stronger effect = lower value
Description: Multicellular complex tumor spheroid response to Polymerase (POL) inhibitors (novobiocin, ART-558, RP6685) in combination with a variety of drugs and investigational agents in selected tumor cell lines
The POL inhibitors (novobiocin, ART-558, and RP6685) were evaluated both individually and in combination with standard of care and investigational anticancer small molecules within a complex spheroid model of solid tumors. . Complex spheroids include a stromal component modeled by human endothelial cells (HUVEC) and fibroblasts modeled by human mesenchymal stem cells (MSCs). The concentration ranges selected for each drug and investigational agent were based upon clinically achievable concentrations if the clinical Cmax of the agent was known.
Compounds. The drugs and investigational agents: novobiocin (NSC847541), ART-558 (NSC835418), RP-6685 (NSC848927), peposertib (NSC802822), ceralasertib (NSC780249), elimusertib (NSC800525), camonsertib (NSC841442), AZD-1390 (NSC803789), olaparib (NSC753686), talazoparib (NSC767125), rucaparib (NSC756644), sotorasib (NSC818433), MRTX-1133 (NSC836407), SN-38 (NSC673596), topotecan (NSC609699), epotoside (NSC141540), doxorubicin (NSC123127), gemcitabine (NSC613327), 5-fluorouracil (NSC19893), paclitaxel (NSC125973), vemurafenib (NSC761431), MSA-2 (NSC828583), SN-011 (NSC837082), adavosertib (NSC754352), prexasertib (NSC758257), carboplatin (NSC241240) and oxaliplatin (NSC266046), were obtained from the National Cancer Institute (NCI) Developmental Therapeutics Program Chemical Repository (21). The FDA-approved anticancer drug set is available from the Developmental Therapeutics Program at https://dtp.cancer.gov/organization/dscb/obtaining/. […] The stock solutions were prepared in dimethyl sulfoxide (DMSO, Sigma-Aldrich, St. Louis, MO, cat. D2650), except for the platinum compounds which were prepared in saline (Quality Biological, Gaithersburg, MD, cat. 114-055-101), at 800-fold the tested concentration and stored at -70 degrees C prior to their use. All drugs and investigational agents were tested over a range starting from a high concentration at or near the clinical Cmax and decreasing in half-log increments. If the clinical Cmax for an agent had not been determined, the highest concentration tested was 10 microM, except for SN-38, which was tested at a high concentration of 1 microM.
Cell Culture. All cells were maintained in an incubator at 37 degrees C and 5% CO2 with 95% humidity. The PDC lines were cultured according to standard operating procedures established by the NCI PDMR (https://pdmr.cancer.gov). Table 3 of the manuscript, lists the cell lines along with the number of the three cell types plated to form the mct-spheroids and media for tumor cell growth. After thawing, all PDC lines, except 997537-175-T-J1-PDC and 415267-285-R-J2-PDC, were cultured in Matrigel-coated flasks prepared with a working solution of 1X Ham's F-12 nutrient mix, without supplementation (Thermo Fisher Scientific, cat. 11765054), 100 U/mL penicillin-streptomycin (Thermo Fisher Scientific, cat. 15140122), and 2.5% Matrigel (Corning Inc., Corning, NY, cat. 354248) for the first three passages. The two PDC lines 997537-175-T-J1-PDC and 415267-285-R-J2-PDC were cultured on uncoated flasks. The 857933-349-R-J2-PDC line was cultured in 6C/Colon 1B media containing advanced DMEM/F-12 (Thermo Fisher Scientific, cat. 12634028), 10 mM HEPES (Thermo Fisher Scientific, cat. 15630080), 1X GlutaMAX supplement (Thermo Fisher Scientific, cat. 35050061), 0.1 mg/mL primocin (InvivoGen, San Diego, CA, cat. ant-pm-2), 10% defined fetal bovine serum, heat inactivated (HyClone Laboratories Inc., Logan, UT, cat. SH30070.03HI), 50% L-WRN conditioned media (ATCC, cat. CRL-3276), 1.25 mM N-Acetyl-L-cysteine (Sigma-Aldrich, cat. A9165), 10 mM nicotinamide (Sigma-Aldrich, cat. N0636), 1X B-27 supplement (Thermo Fisher Scientific, cat. 17504044), 1X N-2 supplement (Thermo Fisher Scientific, cat. […]

[1] = curve of first compound, second compound 0.0316 µM
[2] = curve of first compound, second compound 0.1 µM
[3] = curve of first compound, second compound 0.316 µM
[4] = curve of first compound, second compound 1 µM
[5] = curve of first compound, second compound 3.16 µM
[6] = curve of first compound, second compound 10 µM
[7] = second compound 0.0316 µM, first compound 0.0316 µM
[8] = second compound 0.0316 µM, first compound 0.1 µM
[9] = second compound 0.0316 µM, first compound 0.316 µM
[10] = second compound 0.0316 µM, first compound 1 µM
[11] = second compound 0.0316 µM, first compound 3.16 µM
[12] = second compound 0.0316 µM, first compound 10 µM
[13] = second compound 0.1 µM, first compound 0.0316 µM
[14] = second compound 0.1 µM, first compound 0.1 µM
[15] = second compound 0.1 µM, first compound 0.316 µM
[16] = second compound 0.1 µM, first compound 1 µM
[17] = second compound 0.1 µM, first compound 3.16 µM
[18] = second compound 0.1 µM, first compound 10 µM
[19] = second compound 0.316 µM, first compound 0.0316 µM
[20] = second compound 0.316 µM, first compound 0.1 µM
[21] = second compound 0.316 µM, first compound 0.316 µM
[22] = second compound 0.316 µM, first compound 1 µM
[23] = second compound 0.316 µM, first compound 3.16 µM
[24] = second compound 0.316 µM, first compound 10 µM
[25] = second compound 1 µM, first compound 0.0316 µM
[26] = second compound 1 µM, first compound 0.1 µM
[27] = second compound 1 µM, first compound 0.316 µM
[28] = second compound 1 µM, first compound 1 µM
[29] = second compound 1 µM, first compound 3.16 µM
[30] = second compound 1 µM, first compound 10 µM
[31] = second compound 3.16 µM, first compound 0.0316 µM
[32] = second compound 3.16 µM, first compound 0.1 µM
[33] = second compound 3.16 µM, first compound 0.316 µM
[34] = second compound 3.16 µM, first compound 1 µM
[35] = second compound 3.16 µM, first compound 3.16 µM
[36] = second compound 3.16 µM, first compound 10 µM
[37] = second compound 10 µM, first compound 0.0316 µM
[38] = second compound 10 µM, first compound 0.1 µM
[39] = second compound 10 µM, first compound 0.316 µM
[40] = second compound 10 µM, first compound 1 µM
[41] = second compound 10 µM, first compound 3.16 µM
[42] = second compound 10 µM, first compound 10 µM
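Further: spheroids exposed to drugs for seven days before viability read.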
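Wherever viability, T/C is given: 100% = DMSO vehicle control wells.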

## CCc1cc2c(N3CCc4c(cc(Cn5ccnc5)cc4-c4cn(C)nc4C(F)(F)F)C3=O)ccnc2c(OC)n1 + Nc1ccc(C#CCN(C(=O)Cc2ncc(C(F)(F)F)cc2C(F)(F)F)c2ccc(F)cc2)nn1
[1]
  IC50: > 10 µM
[2]
  IC50: > 10 µM
[3]
  IC50: > 10 µM
[4]
  IC50: > 10 µM
[5]
  IC50: > 10 µM
[6]
  IC50: > 10 µM
[7]
  viability, T/C: 79.9%
[8]
  viability, T/C: 57.4%
[9]
  viability, T/C: 52.4%
[10]
  viability, T/C: 70.4%
[11]
  viability, T/C: 59.1%
[12]
  viability, T/C: 60.8%
[13]
  viability, T/C: 88.2%
[14]
  viability, T/C: 68%
[15]
  viability, T/C: 64.5%
[16]
  viability, T/C: 57.4%
[17]
  viability, T/C: 70%
[18]
  viability, T/C: 60.7%
[19]
  viability, T/C: 88.8%
[20]
  viability, T/C: 66%
[21]
  viability, T/C: 67.9%
[22]
  viability, T/C: 63.5%
[23]
  viability, T/C: 63.5%
[24]
  viability, T/C: 61.7%
[25]
  viability, T/C: 91.2%
[26]
  viability, T/C: 67.1%
[27]
  viability, T/C: 82.7%
[28]
  viability, T/C: 70.5%
[29]
  viability, T/C: 59.5%
[30]
  viability, T/C: 64.4%
[31]
  viability, T/C: 90.6%
[32]
  viability, T/C: 97.6%
[33]
  viability, T/C: 70.3%
[34]
  viability, T/C: 64.6%
[35]
  viability, T/C: 72.5%
[36]
  viability, T/C: 60.2%
[37]
  viability, T/C: 80.7%
[38]
  viability, T/C: 82.2%
[39]
  viability, T/C: 85.5%
[40]
  viability, T/C: 64.3%
[41]
  viability, T/C: 56.7%
[42]
  viability, T/C: 66.9%

## COc1cccc(OCCCN)c1-c1cc(Nc2cnc(C#N)cn2)n[nH]1
Compound 0.00316 µM
  viability, T/C: 93.3% and 117% and 102%
Compound 0.01 µM
  viability, T/C: 77.8% and 102% and 85.5%
Compound 0.0316 µM
  viability, T/C: 53.3% and 60.4% and 57.6%
Compound 0.1 µM
  viability, T/C: 22.6% and 36.9% and 41.6%
Compound 0.316 µM
  viability, T/C: 11.3% and 14.1% and 8.34%
Compound 1 µM
  viability, T/C: 10% and 10.2% and 9.09%
Curve of compound
  IC50: 0.0336 µM and 0.0538 µM and 0.0509 µM

## O=C(Nc1ccc(O)c(NS(=O)(=O)c2ccc(F)cc2)c1)c1ccc(-c2ccccc2)cc1 + Cc1cccc(N(C)C(=O)C2C(O)CCN2c2nc(C)cc(C(F)(F)F)c2C#N)c1
[1]
  IC50: > 10 µM
[2]
  IC50: > 10 µM
[3]
  IC50: > 10 µM
[4]
  IC50: > 10 µM
[5]
  IC50: > 10 µM
[6]
  IC50: 8.04 µM
[7]
  viability, T/C: 116%
[8]
  viability, T/C: 91%
[9]
  viability, T/C: 99.3%
[10]
  viability, T/C: 95%
[11]
  viability, T/C: 89.3%
[12]
  viability, T/C: 64.8%
[13]
  viability, T/C: 83%
[14]
  viability, T/C: 73.9%
[15]
  viability, T/C: 76.1%
[16]
  viability, T/C: 109%
[17]
  viability, T/C: 98.1%
[18]
  viability, T/C: 65.9%
[19]
  viability, T/C: 85.9%
[20]
  viability, T/C: 93.9%
[21]
  viability, T/C: 71.4%
[22]
  viability, T/C: 99.2%
[23]
  viability, T/C: 123%
[24]
  viability, T/C: 65.1%
[25]
  viability, T/C: 91.3%
[26]
  viability, T/C: 80.3%
[27]
  viability, T/C: 100%
[28]
  viability, T/C: 92.2%
[29]
  viability, T/C: 72.8%
[30]
  viability, T/C: 56.2%
[31]
  viability, T/C: 93.2%
[32]
  viability, T/C: 114%
[33]
  viability, T/C: 95.3%
[34]
  viability, T/C: 88.6%
[35]
  viability, T/C: 98.6%
[36]
  viability, T/C: 61%
[37]
  viability, T/C: 92.4%
[38]
  viability, T/C: 106%
[39]
  viability, T/C: 101%
[40]
  viability, T/C: 100%
[41]
  viability, T/C: 71.1%
[42]
  viability, T/C: 45.1%
